From BindingDB's records for doi:10.1016/j.ejmech.2007.04.019 (The Hebrew University of Jerusalem, 2008)

Assays:
[1] = target: Prostaglandin G/H synthase 1 (Homo sapiens, UniProt P23219); experiment: Inhibition of cyclooxygenase-1
[2] = target: T1, Prostaglandin G/H synthase 2 (Homo sapiens, UniProt P35354); experiment: Inhibition of cyclooxygenase-2
T1 sequence (P35354 whole entry): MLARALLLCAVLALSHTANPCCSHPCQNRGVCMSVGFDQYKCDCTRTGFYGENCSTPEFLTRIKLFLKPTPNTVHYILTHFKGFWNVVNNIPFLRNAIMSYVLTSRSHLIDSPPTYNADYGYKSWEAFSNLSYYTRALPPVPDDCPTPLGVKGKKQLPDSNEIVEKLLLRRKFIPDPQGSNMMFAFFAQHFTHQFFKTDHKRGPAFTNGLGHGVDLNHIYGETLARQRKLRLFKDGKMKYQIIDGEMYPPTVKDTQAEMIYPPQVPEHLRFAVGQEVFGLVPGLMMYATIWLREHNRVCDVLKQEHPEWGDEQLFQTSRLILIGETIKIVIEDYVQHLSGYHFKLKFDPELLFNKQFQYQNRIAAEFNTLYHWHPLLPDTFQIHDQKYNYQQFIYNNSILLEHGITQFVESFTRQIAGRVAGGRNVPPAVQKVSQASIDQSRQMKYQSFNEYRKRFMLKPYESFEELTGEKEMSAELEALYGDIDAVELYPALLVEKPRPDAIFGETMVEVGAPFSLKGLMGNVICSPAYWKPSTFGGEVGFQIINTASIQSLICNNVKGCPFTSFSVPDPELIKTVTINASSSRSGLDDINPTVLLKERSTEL

Chain of Prostaglandin G/H synthase 1 (P23219 whole entry): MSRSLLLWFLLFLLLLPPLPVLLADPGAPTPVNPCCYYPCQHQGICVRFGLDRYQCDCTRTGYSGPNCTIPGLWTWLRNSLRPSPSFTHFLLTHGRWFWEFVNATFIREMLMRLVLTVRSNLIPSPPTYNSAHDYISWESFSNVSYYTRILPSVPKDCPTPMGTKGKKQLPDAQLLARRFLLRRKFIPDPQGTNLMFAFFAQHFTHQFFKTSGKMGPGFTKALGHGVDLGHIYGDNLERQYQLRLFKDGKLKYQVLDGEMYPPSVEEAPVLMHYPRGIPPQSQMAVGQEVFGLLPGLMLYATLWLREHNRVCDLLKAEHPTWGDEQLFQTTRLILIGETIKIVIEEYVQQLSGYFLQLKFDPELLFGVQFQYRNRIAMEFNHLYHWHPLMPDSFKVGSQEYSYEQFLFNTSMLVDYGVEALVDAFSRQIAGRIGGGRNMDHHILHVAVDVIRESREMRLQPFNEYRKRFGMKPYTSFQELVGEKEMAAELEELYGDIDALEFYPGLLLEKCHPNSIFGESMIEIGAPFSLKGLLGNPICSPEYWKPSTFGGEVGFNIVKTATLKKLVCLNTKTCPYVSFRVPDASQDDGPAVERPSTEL

Work on `C=C[C@@H]1[C@@H](O)C[C@@H]2[C@]3(CC[C@]4(C)[C@@H]([C@H](C)CCC(OO)C(=C)C)CC[C@@]24C)C[C@]13CCC(=O)OC` (some centres not stated) yielded an IC50 [1] of 43.7 µM and an IC50 [2] of 4.7 µM.
